Publication PMC9718554, “Discovery of a fragment hit compound targeting D-Ala:D-Ala ligase of bacterial peptidoglycan biosynthesis” (Journal of Enzyme Inhibition and Medicinal Chemistry, 2022)
Converted amounts (≈) assume the structure as drawn.

Legend:
[1] = target: T1, E. coli DdlB enzyme (D-alanine:D-alanine ligase) (Escherichia coli, UniProt P07862); assay: biochemical; conditions: for IC50: 700 μM D-Ala, 100 μM ATP, read-out: DdlB inhibition IC50; for remaining activity at 5000 µM: at 5 mM; for remaining activity at 2100 µM: tested concentration 2.1 mM; for remaining activity at 2200 µM: tested concentration 2.2 mM; for remaining activity at 1700 µM: tested concentration 1.7 mM; for remaining activity at 2000 µM: tested concentration 2.0 mM
T1 construct: made in house; host or cells: E. coli

[2] = target: E. coli MurA enzyme (UDP-N-acetylglucosamine enolpyruvyl transferase) (Escherichia coli, UniProt P0A749); assay: MurA inhibition assay (malachite green, deselection); conditions: read-out: MurA inhibition, RA (Residual Activity)
Description: Inhibition of the enzyme was determined using an end-point malachite green assay by detecting the orthophosphate formed during the enzymatic reaction. […] The final DMSO concentration was 5%. […] A parallel experiment without the enzyme was performed to detect insoluble compounds under the assay conditions and subtracted from each measurement. All experiments were performed in duplicates. RAs were calculated with respect to blank experiments without tested compounds and with 5% DMSO.

[3] = Solubility at tested concentrations in fragment library screening; type: physicochemical
Description: Supplement IENZ_A_2149745_SM2502.zip/DDlB_CDR05_SI_20221103.xlsx, sheet "Fragment library screening" | column: Solubility at tested concentrations

E. coli ATCC 25922 = assay: MIC by broth microdilution; type: cell-based; conditions: Escherichia coli, ATCC25922; E. coli ATCC 25922, 20 h at 35 °C; read-out: MIC
Description: (§1) The antibacterial activities of 3 were determined according to the European Committee for […] Susceptibility Testing recommendations and Clinical Laboratory Standards Institute protocol. Compound was tested against reference strains of E. coli and Staphylococcus aureus and against two mutant E. coli strains. E. coli D22 bears a mutation in the LpxC gene that increases membrane permeability, whereas E. coli N43 is an AcrA knockout strain (knockout of the cell membrane pump). […] The most plausible reason is the low on target activity of the hit fragment, however, also the poor penetration into the bacterial cell or efflux pumps effect cannot be ruled out. Although the lack of antibacterial activity is a limitation, hit compound 3 represents a fragment-sized starting point for the development of new compounds with increased DdlB inhibitory potency as well as antibacterial activity.
(§2) Minimum inhibitory concentrations (MICs) for 3 were determined by broth microdilution in Cation-adjusted Mueller-Hinton broth (MH) with TES, TREK Diagnostic Systems Ltd. against S. aureus ATCC 29213, E. coli ATCC 25922, E. coli N43 and E. coli D22. All of the experiments were performed in duplicate in 96-well plate format according to CLSI guidelines and European Committee for Antimicrobial Susceptibility Testing recommendations. The bacterial suspension of a specific bacterial strain was diluted with MH broth to obtain a final inoculum of 5 × 10^5 CFU/mL in the assay. Compound 3 dissolved in DMSO and inoculum were mixed together and incubated for 20 h at 35 °C. After incubation, the minimal inhibitory concentration (MIC) values were determined by visual inspection as the lowest dilution of compounds showing no turbidity. The MICs were determined against S. aureus (ATCC 29213), E. coli (ATCC 25922), E. coli N43, and E. coli D22 bacterial strains. D-Cycloserine was used as a positive control.

S. aureus ATCC 29213 = assay: MIC by broth microdilution; type: cell-based; conditions: Staphylococcus aureus, ATCC29213; S. aureus ATCC 29213, 20 h at 35 °C; read-out: MIC
Description: as §1, §2

E. coli D22 = assay: MIC by broth microdilution; type: cell-based; conditions: Escherichia coli, D22, 20 h
Description: as §1, §2

E. coli N43 = assay: MIC by broth microdilution; type: cell-based; conditions: Escherichia coli, N43, 20 h
Description: as §1, §2

[4] = read-out: DdlB inhibition, RA (Residual Activity)
[5] = residual activity, read-out: DdlB RA

Chain of E. coli MurA enzyme (UDP-N-acetylglucosamine enolpyruvyl transferase) (P0A749 whole entry, the tested form may be a part): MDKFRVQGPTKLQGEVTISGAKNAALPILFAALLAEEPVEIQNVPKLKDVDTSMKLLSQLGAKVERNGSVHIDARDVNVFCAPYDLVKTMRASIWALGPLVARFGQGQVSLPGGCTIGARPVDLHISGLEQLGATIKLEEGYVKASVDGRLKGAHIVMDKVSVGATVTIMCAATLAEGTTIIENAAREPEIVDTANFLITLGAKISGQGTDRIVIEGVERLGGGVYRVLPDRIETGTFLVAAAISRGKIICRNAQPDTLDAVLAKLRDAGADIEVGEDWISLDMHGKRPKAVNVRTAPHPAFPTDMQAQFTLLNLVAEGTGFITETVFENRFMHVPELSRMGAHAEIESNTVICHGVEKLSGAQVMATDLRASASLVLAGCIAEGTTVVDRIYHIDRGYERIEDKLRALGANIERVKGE

COc1ccc(-n2c(C)ccc2C)nc1 [Compound 4]
IC50 [1]: 1790 µM | remaining activity at 5000 µM [2]: 39%

Cc1noc(C)c1C(=O)NCC1Cn2cccc2CN1C (centres unmarked) [Compound 5]
remaining activity at 2500 µM ([1]; at 2.5 mM, read-out: DdlB inhibition, RA (Residual Activity)): 28% | remaining activity at 5000 µM [2]: 6%

CCOc1ccc2c(n1)CCN(C(=O)c1ccccn1)C2 [Compound 6, (2-Ethoxy-7,8-dihydro-1,6-naphthyridin-6(5H)-yl)(pyridin-2-yl)methanone]
remaining activity at 5000 µM [1, 4]: 25% | remaining activity at 2100 µM [1, 5]: 44% | remaining activity at 5000 µM [2]: 104%

Nc1ccc2ncc(C(=O)O)c(O)c2c1 [Compound 7, 6-Amino-4-hydroxyquinoline-3-carboxylic acid]
remaining activity at 5000 µM [1, 4]: 47% | remaining activity at 5000 µM [2]: 81%

COCc1cn(C2CNC2)nn1 [Compound 8]
remaining activity at 5000 µM [1, 4]: 95% | remaining activity at 5000 µM [2]: 100%

CCc1cc(C(=O)N2CC3(C)CC2CC(C)(C)C3)no1 (centres unmarked) [Compound C226-2780]
remaining activity at 2200 µM [1, 5]: 25% | Solubility at tested concentrations ([3]; tested concentration 2.2 mM): not soluble

COC(=O)c1cc2occc2n1Cc1ccccc1Cl [Compound C777-0071]
remaining activity at 1700 µM [1, 5]: 82% | Solubility at tested concentrations ([3]; tested concentration 1.7 mM): not soluble

Cc1ccccc1N(C)C(=O)Cc1noc2ccccc12 [Compound E207-0386]
remaining activity at 2100 µM [1, 5]: 102% | Solubility at tested concentrations ([3]; tested concentration 2.1 mM): not soluble

CCc1ccc(C2Nc3ccccc3S(=O)(=O)N2)cc1 (centres unmarked) [Compound F475-0262]
remaining activity at 2100 µM [1, 5]: 68% | Solubility at tested concentrations ([3]; tested concentration 2.1 mM): not soluble

CC1c2cccn2CCN1C(=O)Nc1ccccc1Cl (centres unmarked) [Compound G551-0008]
remaining activity at 1700 µM [1, 5]: 112% | Solubility at tested concentrations ([3]; tested concentration 1.7 mM): not soluble

O=C(NCCc1ccco1)C1COc2ccccc2C1 (centres unmarked) [Compound G668-0290]
remaining activity at 2200 µM [1, 5]: 70% | Solubility at tested concentrations ([3]; tested concentration 2.2 mM): not soluble

O=C(Nc1ccccc1F)NC1COc2ccccc2C1 (centres unmarked) [Compound G765-0058]
remaining activity at 1700 µM [1, 5]: 93% | Solubility at tested concentrations ([3]; tested concentration 1.7 mM): not soluble

Cc1ccccc1-n1nnnc1C1(N(C)C)CCCC1 [Compound J034-0206]
remaining activity at 2200 µM [1, 5]: 91% | Solubility at tested concentrations ([3]; tested concentration 2.2 mM): not soluble

Cc1ccc(S(=O)(=O)N(C)CC2CCOC2)c(C)c1 (centres unmarked) [Compound S213-1641]
remaining activity at 2100 µM [1, 5]: 110% | Solubility at tested concentrations ([3]; tested concentration 2.1 mM): not soluble

Cc1ccccc1S(=O)(=O)Nc1cnc2c(c1)CCC2 [Compound T157-0058]
remaining activity at 2100 µM [1, 5]: 48% | Solubility at tested concentrations ([3]; tested concentration 2.1 mM): not soluble

CC(C)Oc1n[nH]c(-c2ccc(Cl)cc2Cl)n1 [Compound V017-7311]
remaining activity at 2200 µM [1, 5]: 98% | Solubility at tested concentrations ([3]; tested concentration 2.2 mM): not soluble

CC(C)(C)OC(=O)NCc1cccc(-c2cncs2)c1 [Compound V029-2538]
remaining activity at 1700 µM [1, 5]: 69% | Solubility at tested concentrations ([3]; tested concentration 1.7 mM): not soluble

O=S(=O)(NC1CCCCCC1)c1ccc(F)cc1 [Compound Y030-0828]
remaining activity at 2000 µM [1, 5]: 89% | Solubility at tested concentrations ([3]; tested concentration 2.0 mM): not soluble

O=S(=O)(Cc1ccc(Cl)cc1)N1CCOCC1 [Compound Y031-1160]
remaining activity at 2200 µM [1, 5]: 118% | Solubility at tested concentrations ([3]; tested concentration 2.2 mM): not soluble

O=C(O)c1cnc2ccc(OC(F)(F)F)cc2c1O [Compound Y042-3162]
remaining activity at 1800 µM ([1]; fragment library screening, tested concentration 1.8 mM, read-out: DdlB RA): -5% | Solubility at tested concentrations ([3]; tested concentration 1.8 mM): not soluble

CC1CCN(C(=O)CC2(n3cccc3)CCCCC2)CC1 [Compound Y042-5984]
remaining activity at 1700 µM [1, 5]: 90% | Solubility at tested concentrations ([3]; tested concentration 1.7 mM): not soluble

Cc1ccc(C)c(S(=O)(=O)N2CCCC(C)C2)c1 (centres unmarked) [Compound Y206-4328]
remaining activity at 2200 µM [1, 5]: 116% | Solubility at tested concentrations ([3]; tested concentration 2.2 mM): not soluble

CC1CCCC(NC(=O)c2ccc(Cl)cc2)C1C (centres unmarked) [Compound Y502-2265]
remaining activity at 2300 µM ([1]; residual activity, tested concentration 2.3 mM, read-out: DdlB RA): 91% | Solubility at tested concentrations ([3]; tested concentration 2.3 mM): not soluble

O=C(O)c1cc(-c2ccccc2)nc2c(Cl)cnn12 [Compound Y504-7719]
remaining activity at 2200 µM [1, 5]: 90% | Solubility at tested concentrations ([3]; tested concentration 2.2 mM): not soluble

O=S(=O)(c1ccccc1)N1CCOc2ccccc21 [Compound Z606-0391]
remaining activity at 2000 µM [1, 5]: 97% | Solubility at tested concentrations ([3]; tested concentration 2.0 mM): not soluble

N[C@@H]1CON=C1O [D-Cyclo-serine, D-Cycloserine, reference compound]
IC50 [1]: 108 µM | MIC (E. coli ATCC 25922): 64 µg/mL (≈ 627 µM) | MIC (S. aureus ATCC 29213): 32 µg/mL (≈ 313 µM) | MIC (E. coli D22): 16 µg/mL (≈ 157 µM) | MIC (E. coli N43): 32 µg/mL (≈ 313 µM)
